Measurements: PMC4979471 (Cell Death Discovery, 2015)
Where two headings read alike, the source gives them in different places.

How the values were obtained:
Experiment in all cases: Kinase selectivity, P33-radiolabeled assay
Type in all cases: biochemical
Details in all cases: 10 μM ATP
ASK1/MAP3K5 = biological target: T1, ASK1/MAP3K5 (Homo sapiens, UniProt Q99683)
T1 construct: purchased Reaction Biology Corp
T1 sequence (Q99683 1-1374): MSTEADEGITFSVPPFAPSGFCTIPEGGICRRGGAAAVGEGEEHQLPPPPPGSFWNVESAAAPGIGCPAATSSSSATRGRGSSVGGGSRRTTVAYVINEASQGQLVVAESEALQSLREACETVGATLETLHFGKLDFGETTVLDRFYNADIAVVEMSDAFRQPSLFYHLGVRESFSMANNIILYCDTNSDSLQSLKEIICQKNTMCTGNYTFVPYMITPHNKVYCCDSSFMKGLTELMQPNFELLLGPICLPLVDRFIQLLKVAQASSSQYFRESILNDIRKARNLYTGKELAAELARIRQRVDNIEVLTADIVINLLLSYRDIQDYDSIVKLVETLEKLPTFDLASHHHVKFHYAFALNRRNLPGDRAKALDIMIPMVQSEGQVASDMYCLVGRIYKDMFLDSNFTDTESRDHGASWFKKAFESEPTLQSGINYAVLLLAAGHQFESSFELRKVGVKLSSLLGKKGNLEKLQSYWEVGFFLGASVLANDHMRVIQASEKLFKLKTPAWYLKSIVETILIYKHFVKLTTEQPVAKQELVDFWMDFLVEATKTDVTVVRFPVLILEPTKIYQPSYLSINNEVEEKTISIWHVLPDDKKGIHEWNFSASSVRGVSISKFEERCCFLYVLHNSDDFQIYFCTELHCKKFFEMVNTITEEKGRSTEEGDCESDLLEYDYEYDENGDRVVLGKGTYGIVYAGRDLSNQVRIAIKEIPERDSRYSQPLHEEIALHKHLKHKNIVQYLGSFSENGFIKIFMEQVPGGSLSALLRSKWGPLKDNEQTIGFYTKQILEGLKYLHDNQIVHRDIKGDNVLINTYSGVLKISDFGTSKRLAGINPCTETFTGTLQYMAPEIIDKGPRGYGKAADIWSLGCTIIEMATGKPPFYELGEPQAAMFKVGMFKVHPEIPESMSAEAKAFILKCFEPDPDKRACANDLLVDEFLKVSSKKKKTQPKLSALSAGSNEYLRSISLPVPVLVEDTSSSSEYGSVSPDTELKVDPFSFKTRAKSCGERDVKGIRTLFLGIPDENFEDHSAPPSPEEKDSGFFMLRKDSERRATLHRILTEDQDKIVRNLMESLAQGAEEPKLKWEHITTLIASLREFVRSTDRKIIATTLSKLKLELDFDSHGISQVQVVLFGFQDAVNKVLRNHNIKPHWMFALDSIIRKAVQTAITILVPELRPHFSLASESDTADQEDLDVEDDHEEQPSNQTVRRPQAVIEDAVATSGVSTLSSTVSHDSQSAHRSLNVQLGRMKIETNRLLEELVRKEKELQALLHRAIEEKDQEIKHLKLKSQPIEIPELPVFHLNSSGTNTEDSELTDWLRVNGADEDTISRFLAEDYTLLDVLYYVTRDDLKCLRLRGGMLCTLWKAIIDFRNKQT
Summary of the method: (§1)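 Activity relative to DMSO controls (%) was measured for compound at 10 μM. Assays ran at 10 μM ATP, in duplicate.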

CLK4 = biological target: T2, CLK4 (Homo sapiens, UniProt Q9HAZ1)
T2 construct: purchased Reaction Biology Corp
Summary of the method: as §1

DYRK1/DYRK1A = biological target: T3, DYRK1/DYRK1A (Homo sapiens, UniProt Q13627)
T3 construct: purchased Reaction Biology Corp
Summary of the method: as §1

Haspin = biological target: T4, Haspin (Homo sapiens, UniProt Q8TF76)
T4 construct: purchased Reaction Biology Corp
T4 sequence (Q8TF76 1-798): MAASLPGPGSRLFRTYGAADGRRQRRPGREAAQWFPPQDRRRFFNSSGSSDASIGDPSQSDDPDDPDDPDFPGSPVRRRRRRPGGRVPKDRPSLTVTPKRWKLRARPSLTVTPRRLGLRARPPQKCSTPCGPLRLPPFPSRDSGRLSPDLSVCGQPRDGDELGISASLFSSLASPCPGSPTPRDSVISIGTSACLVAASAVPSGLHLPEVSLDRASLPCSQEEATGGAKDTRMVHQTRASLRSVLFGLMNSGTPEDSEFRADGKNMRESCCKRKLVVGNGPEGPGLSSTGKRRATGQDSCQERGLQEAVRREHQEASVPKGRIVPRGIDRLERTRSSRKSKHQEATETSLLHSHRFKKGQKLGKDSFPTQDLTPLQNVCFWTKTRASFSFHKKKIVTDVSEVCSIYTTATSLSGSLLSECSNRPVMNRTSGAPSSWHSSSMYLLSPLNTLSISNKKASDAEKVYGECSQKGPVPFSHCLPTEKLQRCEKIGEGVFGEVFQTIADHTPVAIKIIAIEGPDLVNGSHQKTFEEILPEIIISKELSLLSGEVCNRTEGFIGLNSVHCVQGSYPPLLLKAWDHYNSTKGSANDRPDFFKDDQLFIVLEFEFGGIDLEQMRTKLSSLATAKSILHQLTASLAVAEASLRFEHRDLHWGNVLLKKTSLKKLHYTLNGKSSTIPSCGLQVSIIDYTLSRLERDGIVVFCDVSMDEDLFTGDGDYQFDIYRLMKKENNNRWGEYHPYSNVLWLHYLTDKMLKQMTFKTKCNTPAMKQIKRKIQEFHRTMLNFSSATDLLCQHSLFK
Summary of the method: as §1

JNK2 = biological target: T5, JNK2 (Homo sapiens, UniProt P45984)
T5 construct: purchased Reaction Biology Corp
Summary of the method: as §1

MLCK/MYLK = biological target: T6, MLCK/MYLK (Homo sapiens, UniProt Q15746)
T6 construct: purchased Reaction Biology Corp
Summary of the method: as §1

RIPK2 = biological target: T7, RIPK2 (Homo sapiens, UniProt O43353)
T7 construct: purchased Reaction Biology Corp
Summary of the method: as §1

SRMS = biological target: T8, SRMS (Homo sapiens, UniProt Q9H3Y6)
T8 construct: purchased Reaction Biology Corp
Summary of the method: as §1

SRPK1 = biological target: T9, SRPK1 (Homo sapiens, UniProt Q96SB4)
T9 construct: purchased Reaction Biology Corp
Summary of the method: as §1

[1] = read-out: % Enzyme Activity (relative to DMSO controls) AVG
[2] = read-out: % Enzyme Activity (relative to DMSO controls) Data 1
[3] = read-out: % Enzyme Activity (relative to DMSO controls) Data 2

T7 sequence (O43353 whole entry): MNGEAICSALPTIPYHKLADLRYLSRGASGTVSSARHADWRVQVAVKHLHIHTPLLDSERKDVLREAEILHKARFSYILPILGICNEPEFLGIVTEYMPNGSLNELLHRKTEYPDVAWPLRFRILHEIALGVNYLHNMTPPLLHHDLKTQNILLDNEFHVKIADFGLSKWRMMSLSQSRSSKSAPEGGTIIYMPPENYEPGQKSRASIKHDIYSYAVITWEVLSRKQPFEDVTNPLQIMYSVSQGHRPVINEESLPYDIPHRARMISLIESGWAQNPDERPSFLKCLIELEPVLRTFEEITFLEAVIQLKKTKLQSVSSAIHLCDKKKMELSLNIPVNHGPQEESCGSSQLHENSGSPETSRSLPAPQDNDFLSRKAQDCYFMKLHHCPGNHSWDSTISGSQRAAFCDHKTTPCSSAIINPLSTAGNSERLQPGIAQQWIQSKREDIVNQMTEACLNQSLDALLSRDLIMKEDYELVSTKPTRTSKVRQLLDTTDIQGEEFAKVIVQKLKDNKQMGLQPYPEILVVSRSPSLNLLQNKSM
T2 sequence (Q9HAZ1 whole entry): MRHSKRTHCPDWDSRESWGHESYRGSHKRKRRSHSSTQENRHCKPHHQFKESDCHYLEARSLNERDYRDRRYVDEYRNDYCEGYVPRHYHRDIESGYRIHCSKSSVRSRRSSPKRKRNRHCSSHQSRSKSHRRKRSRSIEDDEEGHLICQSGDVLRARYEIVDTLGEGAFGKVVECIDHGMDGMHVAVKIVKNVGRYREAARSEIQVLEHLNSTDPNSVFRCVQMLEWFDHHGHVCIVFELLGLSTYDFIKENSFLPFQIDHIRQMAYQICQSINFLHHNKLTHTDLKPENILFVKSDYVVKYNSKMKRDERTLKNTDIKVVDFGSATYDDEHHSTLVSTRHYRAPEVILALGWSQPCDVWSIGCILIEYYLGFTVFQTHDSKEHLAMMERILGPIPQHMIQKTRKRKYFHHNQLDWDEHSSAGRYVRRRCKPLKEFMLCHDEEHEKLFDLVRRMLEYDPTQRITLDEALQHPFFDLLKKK
T9 sequence (Q96SB4 whole entry): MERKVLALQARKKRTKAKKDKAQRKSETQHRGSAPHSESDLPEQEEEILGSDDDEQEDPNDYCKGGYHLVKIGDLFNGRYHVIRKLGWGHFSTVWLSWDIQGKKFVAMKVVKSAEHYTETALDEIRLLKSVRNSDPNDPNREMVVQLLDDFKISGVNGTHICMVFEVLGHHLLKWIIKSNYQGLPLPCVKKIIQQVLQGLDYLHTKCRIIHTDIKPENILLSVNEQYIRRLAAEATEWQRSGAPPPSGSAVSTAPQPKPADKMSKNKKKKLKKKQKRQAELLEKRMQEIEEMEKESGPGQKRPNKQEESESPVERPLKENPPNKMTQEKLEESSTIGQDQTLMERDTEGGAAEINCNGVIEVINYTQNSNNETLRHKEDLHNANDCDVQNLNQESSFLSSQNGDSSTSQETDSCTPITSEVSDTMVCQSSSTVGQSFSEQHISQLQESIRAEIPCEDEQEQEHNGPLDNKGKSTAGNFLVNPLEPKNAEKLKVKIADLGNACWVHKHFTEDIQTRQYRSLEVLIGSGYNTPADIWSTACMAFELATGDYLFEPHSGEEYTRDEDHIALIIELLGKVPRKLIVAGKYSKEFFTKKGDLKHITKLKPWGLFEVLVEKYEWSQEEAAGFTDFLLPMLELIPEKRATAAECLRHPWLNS
T8 sequence (Q9H3Y6 whole entry): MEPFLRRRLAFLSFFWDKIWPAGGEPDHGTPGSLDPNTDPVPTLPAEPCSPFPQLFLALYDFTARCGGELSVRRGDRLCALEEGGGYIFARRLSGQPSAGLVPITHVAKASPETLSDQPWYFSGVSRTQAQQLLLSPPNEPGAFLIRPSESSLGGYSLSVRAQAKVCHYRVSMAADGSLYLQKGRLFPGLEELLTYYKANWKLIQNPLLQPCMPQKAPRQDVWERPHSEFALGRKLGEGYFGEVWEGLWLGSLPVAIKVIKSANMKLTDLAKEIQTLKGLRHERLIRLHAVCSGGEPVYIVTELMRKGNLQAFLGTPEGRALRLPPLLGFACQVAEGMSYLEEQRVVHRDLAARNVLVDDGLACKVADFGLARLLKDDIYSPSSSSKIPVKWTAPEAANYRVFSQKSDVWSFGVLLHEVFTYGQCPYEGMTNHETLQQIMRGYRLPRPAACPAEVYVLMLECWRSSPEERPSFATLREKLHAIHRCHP
T5 sequence (P45984 whole entry): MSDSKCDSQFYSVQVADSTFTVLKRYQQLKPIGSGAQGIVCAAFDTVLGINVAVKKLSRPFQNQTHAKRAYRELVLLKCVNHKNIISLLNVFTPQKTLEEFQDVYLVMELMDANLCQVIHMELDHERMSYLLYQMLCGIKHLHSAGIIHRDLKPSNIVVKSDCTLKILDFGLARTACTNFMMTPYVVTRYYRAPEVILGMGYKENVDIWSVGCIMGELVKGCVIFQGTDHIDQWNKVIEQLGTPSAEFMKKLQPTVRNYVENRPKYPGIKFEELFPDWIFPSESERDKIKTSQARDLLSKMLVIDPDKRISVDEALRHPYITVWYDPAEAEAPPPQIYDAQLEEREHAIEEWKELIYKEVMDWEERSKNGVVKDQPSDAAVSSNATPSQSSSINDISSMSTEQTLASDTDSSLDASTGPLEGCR

**Q.** With CC(C)(C)C(=O)N1N=CC[C@H]1c1ccccc1 [GSK′963] as the molecule, how does the remaining activity at 10 µM (ASK1/MAP3K5; [1]) read?
**A.** 98.8%

**Q.** And the remaining activity at 10 µM (ASK1/MAP3K5; [2])?
**A.** 99.4%

**Q.** What about the remaining activity at 10 µM (ASK1/MAP3K5; [3]) of the same molecule?
**A.** 98.1%

**Q.** What about the remaining activity at 10 µM (CLK4; [1]) of the same molecule?
**A.** 100%

**Q.** And the remaining activity at 10 µM (CLK4; [2])?
**A.** 101%

**Q.** What about the remaining activity at 10 µM (CLK4; [3]) of the same molecule?
**A.** 99.8%

**Q.** And the remaining activity at 10 µM (DYRK1/DYRK1A; [1])?
**A.** 103%

**Q.** What about the remaining activity at 10 µM (DYRK1/DYRK1A; [2]) of the same molecule?
**A.** 103%

**Q.** And the remaining activity at 10 µM (DYRK1/DYRK1A; [3])?
**A.** 103%

**Q.** What about the remaining activity at 10 µM (Haspin; [1]) of the same molecule?
**A.** 96.7%

**Q.** What about the remaining activity at 10 µM (Haspin; [2]) of the same molecule?
**A.** 97.3%

**Q.** What about the remaining activity at 10 µM (Haspin; [3]) of the same molecule?
**A.** 96.2%

**Q.** What about the remaining activity at 10 µM (JNK2; [1]) of the same molecule?
**A.** 100%

**Q.** What about the remaining activity at 10 µM (JNK2; [2]) of the same molecule?
**A.** 96.4%

**Q.** What about the remaining activity at 10 µM (JNK2; [3]) of the same molecule?
**A.** 104%

**Q.** What about the remaining activity at 10 µM (MLCK/MYLK; [1]) of the same molecule?
**A.** 96.1%

**Q.** And the remaining activity at 10 µM (MLCK/MYLK; [2])?
**A.** 97.1%

**Q.** What about the remaining activity at 10 µM (MLCK/MYLK; [3]) of the same molecule?
**A.** 95.2%

**Q.** And the remaining activity at 10 µM (RIPK2; [1])?
**A.** 110%

**Q.** What about the remaining activity at 10 µM (RIPK2; [2]) of the same molecule?
**A.** 108%

**Q.** And the remaining activity at 10 µM (RIPK2; [3])?
**A.** 112%

**Q.** And the remaining activity at 10 µM (SRMS; [1])?
**A.** 101%

**Q.** What about the remaining activity at 10 µM (SRMS; [2]) of the same molecule?
**A.** 98.6%

**Q.** What about the remaining activity at 10 µM (SRMS; [3]) of the same molecule?
**A.** 103%

**Q.** What about the remaining activity at 10 µM (SRPK1; [1]) of the same molecule?
**A.** 97.7%

**Q.** And the remaining activity at 10 µM (SRPK1; [2])?
**A.** 93.2%

**Q.** And the remaining activity at 10 µM (SRPK1; [3])?
**A.** 102%
